# Target: T1, human plasma protein factor Xa (Homo sapiens, UniProt P00742)
# T1 construct: The human plasma protein factor Xa was purchased; purchased Haematologic Technologies (Essex Junction, Vt.); host or cells: human plasma
# Assay: Factor Xa IC50 determination (cleavage of paranitroanilide substrate S-2765)
# Type: biochemical
# Conditions: factor Xa 1 nM, S-2765 100 μM, Tris buffered saline pH 7.4, read at 405 nm
# Outline: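 Human plasma factor Xa (1 nM) preincubated 5 min at room temperature with inhibitor (0.01 nM–10 μM) in Tris-buffered saline pH 7.4 with 5 mM CaCl2, 0.1% BSA, 5% DMSO. S-2765 added at 100 μM final; pNA release followed at 405 nm for 2 min. IC50 from four-parameter fit of initial velocities.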
# T1 sequence (P00742 235-488 limits assumed): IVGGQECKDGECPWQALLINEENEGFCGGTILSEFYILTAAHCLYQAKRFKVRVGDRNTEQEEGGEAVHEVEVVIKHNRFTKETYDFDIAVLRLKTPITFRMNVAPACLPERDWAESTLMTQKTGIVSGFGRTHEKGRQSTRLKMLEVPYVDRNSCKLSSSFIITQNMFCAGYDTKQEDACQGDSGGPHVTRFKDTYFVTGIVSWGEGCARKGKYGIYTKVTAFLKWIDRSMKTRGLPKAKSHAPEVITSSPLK
# T1 sequence (P00742 41-179 partner limits assumed): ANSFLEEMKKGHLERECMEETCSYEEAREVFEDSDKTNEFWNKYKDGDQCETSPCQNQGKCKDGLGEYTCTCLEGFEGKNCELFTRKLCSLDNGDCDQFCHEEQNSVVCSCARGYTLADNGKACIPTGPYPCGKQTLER
row,IC50 [nM],Compound
1,≤ 100,"O=C(NCc1cn(-c2ccc(-n3ccccc3=O)cc2OCc2nccn2Cc2ncc[nH]2)nn1)c1ccc(Cl)s1 [Compound 178, N-((1-(2-((1-((1H-imidazol-2-yl)methyl)-1H-imidazol-2-yl)methoxy)-4-(2-oxopyridin-1(2H)-yl)phenyl)-1H-1,2,3-triazol-4-yl)methyl)-5-chlorothiophene-2-carboxamide]"
2,≤ 100,"Cc1cc(COc2cc(-n3ccccc3=O)ccc2-n2cc(CNC(=O)c3ccc(Cl)s3)nn2)no1 [Compound 179, 5-Chloro-N-((1-(2-((5-methylisoxazol-3-yl)methoxy)-4-(2-oxopyridin-1(2H)-yl)phenyl)-1H-1,2,3-triazol-4-yl)methyl)thiophene-2-carboxamide]"
3,≤ 100,"O=C(NCc1cn(-c2ccc(-n3ccccc3=O)cc2OCCn2cccc2)nn1)c1ccc(Cl)s1 [Compound 180, N-((1-(2-(2-(1H-Pyrrol-1-yl)ethoxy)-4-(2-oxopyridin-1(2H)-yl)phenyl)-1H-1,2,3-triazol-4-yl)methyl)-5-chlorothiophene-2-carboxamide]"
